According to the supplement of paper PMC4862054:

How the values were obtained:
Conditions in all cases: incubation time: 72 h
HCC1599 [1] = test: normalised response (% of control), CellTox Green; higher = less cell death (100 = DMSO, 0 = benzethonium chloride kill control)
How it was run: (§1)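 CellTox Green fluorescence (485/520 nm) and, after 10 min at room temperature, CellTiter-Glo luminescence were read from breast cancer cell lines incubated 72 h in 384-well plates. Cells were seeded as 20 µl suspension onto compound at 5 concentrations in 10-fold steps over a 10,000-fold range chosen per compound. Each plate was normalised to 0.1 % DMSO (100) and a positive kill control (0). Values are normalised signals, one per concentration.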

MDA-MB-436 [2] = test: as above
How it was run: as §1

CAL-120 [3] = test: as above
How it was run: as §1

HDQ-P1 [4] = test: as above
How it was run: as §1

HCC1937 [5] = test: as above
How it was run: as §1

MDA-MB-231 [6] = test: as above
How it was run: as §1

HCC1143 [7] = test: as above
How it was run: as §1

CAL-85-1 [8] = test: as above
How it was run: as §1

CAL-148 [9] = test: as above
How it was run: as §1

DU-4475 [10] = test: as above
How it was run: as §1

BT-549 [11] = test: as above
How it was run: as §1

Hs578T [12] = test: as above
How it was run: as §1

CAL-51 [13] = test: as above
How it was run: as §1

MCF-10A [14] = test: as above
How it was run: as §1

MDA-MB-453 [15] = test: as above
How it was run: as §1

MFM-223 [16] = test: as above
How it was run: as §1

BT-474 [17] = test: as above
How it was run: as §1

HCC1599 [18] = test: normalised response (% of control), CellTiter-Glo; higher = more viable cells (100 = DMSO, 0 = benzethonium chloride kill control)
Description: (§2)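 DSRT, 72 h incubation, CellTox Green / CellTiter-Glo readout. Signal is normalised to DMSO and benzethonium chloride controls. Value is the normalised response at dose 3.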

MDA-MB-436 [19] = test: as above
Description: as §2

CAL-120 [20] = test: as above
Description: as §2

HDQ-P1 [21] = test: as above
Description: as §2

HCC1937 [22] = test: as above
Description: as §2

MDA-MB-231 [23] = test: as above
Description: as §2

MDA-MB-468 [24] = test: as above
Description: as §2

HCC1143 [25] = test: as above
Description: as §2

SK-BR-3 = test: as above
Description: as §2

CAL-85-1 [26] = test: as above
Description: as §2

CAL-148 [27] = test: as above
Description: as §2

DU-4475 [28] = test: as above
Description: as §2

BT-549 [29] = test: as above
Description: as §2

Hs578T [30] = test: as above
Description: as §2

CAL-51 [31] = test: as above
Description: as §2

MCF-10A [32] = test: as above
Description: as §2

MDA-MB-453 [33] = test: as above
Description: as §2

MFM-223 [34] = test: as above
Description: as §2

BT-474 [35] = test: as above
Description: as §2

MDA-MB-468 [36] = test: normalised response (% of control), CellTox Green; higher = less cell death (100 = DMSO, 0 = benzethonium chloride kill control)
How it was run: as §1

Row | Structure (SMILES) | normalised response (HCC1599 [1]) [%] | normalised response (MDA-MB-436 [2]) [%] | normalised response (CAL-120 [3]) [%] | normalised response (HDQ-P1 [4]) [%] | normalised response (HCC1937 [5]) [%] | normalised response (MDA-MB-231 [6]) [%] | normalised response (HCC1143 [7]) [%] | normalised response (CAL-85-1 [8]) [%] | normalised response (CAL-148 [9]) [%] | normalised response (DU-4475 [10]) [%] | normalised response (BT-549 [11]) [%] | normalised response (Hs578T [12]) [%] | normalised response (CAL-51 [13]) [%] | normalised response (MCF-10A [14]) [%] | normalised response (MDA-MB-453 [15]) [%] | normalised response (MFM-223 [16]) [%] | normalised response (BT-474 [17]) [%] | normalised response (HCC1599 [18]) [%] | normalised response (MDA-MB-436 [19]) [%] | normalised response (CAL-120 [20]) [%] | normalised response (HDQ-P1 [21]) [%] | normalised response (HCC1937 [22]) [%] | normalised response (MDA-MB-231 [23]) [%] | normalised response (MDA-MB-468 [24]) [%] | normalised response (HCC1143 [25]) [%] | normalised response (SK-BR-3) [%] | normalised response (CAL-85-1 [26]) [%] | normalised response (CAL-148 [27]) [%] | normalised response (DU-4475 [28]) [%] | normalised response (BT-549 [29]) [%] | normalised response (Hs578T [30]) [%] | normalised response (CAL-51 [31]) [%] | normalised response (MCF-10A [32]) [%] | normalised response (MDA-MB-453 [33]) [%] | normalised response (MFM-223 [34]) [%] | normalised response (BT-474 [35]) [%] | normalised response (MDA-MB-468 [36]) [%]
1 | O=C(CCCCCCC(=O)Nc1ccccc1)NO [Vorinostat] (100 nM) | 95.5 | 74.1 | 90.8 | 102 | 102 | 92.3 | 109 | 94.8 | 102 | 97.7 | 96.8 | 108 | 86.3 | 91.4 | 102 | 99.6 | 71.5 | 113 | 97 | 96.1 | 97.1 | 97.7 | 93.6 | 110 | 98.8 | 94.5 | 105 | 108 | 99.6 | 100 | 98.2 | 69.6 | 101 | 101 | 97.8 | 96.2 | –
2 | COc1cc(Nc2c(C#N)cnc3cc(OCCCN4CCN(C)CC4)c(OC)cc23)c(Cl)cc1Cl [Bosutinib] (100 nM) | 101 | 104 | 99.3 | 101 | 54.8 | 104 | 76.2 | 117 | 105 | 109 | 97.1 | – | 101 | 103 | 100 | 101 | 101 | 93.1 | 103 | 100 | 85.9 | 95.5 | 100 | 95.4 | 101 | 109 | 98.3 | 104 | 97.5 | 103 | 99 | 100 | 77.4 | 103 | 99.3 | 104 | 148
3 | CC1(C)CCC(c2ccc(Cl)cc2)=C(CN2CCN(c3ccc(C(=O)NS(=O)(=O)c4ccc(N[C@H](CCN5CCOCC5)CSc5ccccc5)c(S(=O)(=O)C(F)(F)F)c4)cc3)CC2)C1 [Navitoclax] (100 nM) | 101 | 72.7 | 92.1 | – | 67.1 | 73.8 | 92.1 | 93.6 | 100 | 96.2 | 96.6 | – | 94 | 79.6 | 92 | 103 | 99.4 | 94.5 | 91.9 | 87.2 | 96.8 | 87.9 | 91.4 | 83 | 95.6 | 88.5 | 89.7 | 88 | 92.9 | 96.7 | 93.6 | 104 | 91.4 | 87.7 | 96 | 88.1 | 104
4 | CC(C)n1cnc2c(NCCc3ccc(O)cc3)nc(-c3csc4ccccc34)nc21 [StemRegenin 1] (100 nM) | 99.5 | 118 | 102 | 88.2 | 98.2 | 111 | 96.3 | 113 | 103 | 102 | 100 | – | 89.2 | 117 | 109 | 98.8 | 80 | 91 | 101 | 112 | 95.2 | 96.9 | 112 | 93.8 | 109 | 103 | 98.8 | 103 | 98.4 | 99.2 | 103 | 80.8 | 99.5 | 93.8 | 104 | 100 | 105
5 | CCn1c(C(=O)N(C2CC2)C2CC2)cc2c3c(ncn3C)c(Nc3cc(C)n(C)n3)nc21 (100 nM) | 96 | 93.9 | 90.4 | 102 | 57.1 | 106 | 98.8 | 108 | 103 | 101 | 106 | – | 101 | 77.7 | 99.3 | 94.8 | 101 | 93 | 106 | 95.7 | 98.3 | 97.4 | 99.7 | 97 | 101 | 105 | 100 | 103 | 99.2 | 110 | 110 | 87.7 | 106 | 93.2 | 99.8 | 100 | 83.1
6 | CO[C@@]12[C@H](COC(N)=O)C3=C(C(=O)C(C)=C(N)C3=O)N1C[C@@H]1N[C@@H]12 [Mitomycin C] (100 nM) | 91.5 | 83.8 | 101 | – | 84.9 | 97 | 90 | 93.3 | 60.3 | 95.3 | 99.5 | – | 73.6 | 81.8 | 102 | 99.2 | 100 | 95.7 | 90.8 | 91.8 | 104 | 93.9 | 93.5 | 91.3 | 98.2 | 94 | 101 | 89.6 | 99 | 96.5 | 98.9 | 101 | 92.2 | 94.1 | 93.8 | 95.2 | –
7 | COc1ccc(S(=O)(=O)Nc2cccnc2Nc2ccc(O)cc2)cc1 [ABT-751] (100 nM) | 101 | 83.8 | 94.7 | 101 | 110 | 102 | 69.5 | 92.2 | 104 | 97.4 | 95.4 | – | 98.6 | 57 | 98 | – | 92.9 | 109 | 98.5 | 95.2 | 96 | 92.5 | 101 | 97 | 99.3 | 93 | 96.9 | 96.6 | 99.6 | 100 | 107 | 88.9 | 96.6 | 84.2 | 101 | 99.2 | 81.9
8 | CC(C)(C)c1nc(-c2cccc(NS(=O)(=O)c3c(F)cccc3F)c2F)c(-c2ccnc(N)n2)s1 [Dabrafenib] (25 nM) | 93.3 | 79.1 | 105 | 95.9 | 94.8 | 114 | 107 | 107 | 106 | 99.8 | 98.8 | – | 110 | 108 | 105 | – | 103 | 105 | 111 | 99.8 | 103 | 102 | 100 | 94.7 | 118 | 110 | 96.6 | 108 | 82.6 | 104 | 104 | 89.9 | 115 | 96.7 | 106 | 99.2 | 119
9 | CCNC(=O)CCC/C=C\C[C@@H]1[C@@H](/C=C/[C@@H](O)CCc2ccccc2)[C@H](O)C[C@@H]1O [Bimatoprost] (55 nM) | 97.2 | – | 98.3 | 64.3 | 76.7 | 99.8 | 110 | 83.9 | 95 | 96.9 | 94.8 | 103 | 103 | 89.2 | 97.6 | 101 | 98.7 | 99.4 | 100 | 99.7 | 94.2 | 97.1 | 100 | 94 | 99.7 | 91.7 | 92.4 | 95.8 | 94.7 | 98.3 | 94.9 | 90.4 | 90.1 | 99.1 | 104 | 97.2 | –
